Where two headings read alike, the source gives them in different places. Where no end group is shown, it is not given here.
Tests used:
[1] = format: physicochemical; settings: Tris HCL pH 7, 3 mM SDS
Procedure: 0.1 g/L of RiLK1 peptide was dissolved in 10 mM Tris HCL at pH 7 and 3 mM SDS. The prepared samples were incubated for 24 hours at 4° C. or 25° C. and analysed at time zero and after 24 hours.

[2] = system: Candida albicans (ATCC 14053); assay: activity against yeast, plate count, MFC; format: cell-based; settings: C. albicans; 25 μM, 6 h
Procedure: The inhibitory activity of the RiLK1 peptide was determined against the yeast Candida albicans. A stock culture was prepared in which 10^5 CFUs of C. albicans were inoculated in 10 ml of buffered peptone water. A reference strain (ATCC 14053) was used for this species. The culture was incubated for 6 h at 37° C. with the RiLK1 peptide at 25 μM concentrations. At the same time, control samples were incubated without adding the peptide. 100 μl of the samples thus prepared were seeded on DG18 plates (Dichloran 18% Glycerol Agar-ISO 21527-2) and incubated at 25° C. for 7 days. All experimental conditions investigated used the plate count method to estimate the antimycotic activity of the peptide. Specifically, the numbers of colonies grown on agar plates seeded with the cultures in the absence or presence of the individual peptide dilutions were counted and compared. The standard deviations of the triplicate incubations of each plate were determined using statistical software. The evaluation of the Minimum Fungicidal Concentration (MFC), i.e., the lowest concentration of antifungal agent capable of 99.9% inhibition of fungal growth on plates, was carried out as described in Bílikova et al, (2015, Peptides 68:190-196).

L. monocytogenes (LM2) = format: cell-based, Listeria monocytogenes
Procedure: (§1) The evaluation of the Minimum Bactericidal Concentration (MBC), i.e., the lowest concentration of antimicrobial agent capable of 99.9% inhibition of bacterial growth on plates, was carried out as described in Bílikova et al, (2015, Peptides 68:190-196). […] It should be noted that the peptide object of the present invention is more powerful and efficient than the peptide IDR-1018-K6 (described in patent application WO2019012158) against the pathogenic bacteria L. monocytogenes and S. typhimurium, with bactericidal concentration values 4-fold and 7-fold lower, respectively, compared to those shown by IDR-1018-K6.

E. coli [3] = assay: bactericidal activity at 15 μM, CFU versus control; format: cell-based
Procedure: (§2) The bactericidal activity of further AMP peptides according to the invention, in particular of the RiLK31 peptide (RLRWVKIWKK, SEQ ID NO:31) and the RiLK3 peptide (RLRWVRIWRR, SEQ ID NO:3), was tested. The bactericidal activity was expressed as a percentage of viable cells in terms of CFU (Colony Forming Units) in a bacterial sample exposed to each peptide compared to those in a control bacterial sample in the absence of the peptide. All tests were carried out with the same peptide concentration, corresponding to 15 μM.

Listeria = assay: bactericidal activity at 15 μM, CFU versus control; format: cell-based
Procedure: as §2

Salmonella = assay: bactericidal activity at 15 μM, CFU versus control; format: cell-based
Procedure: as §2

Staphylococcus = assay: bactericidal activity at 15 μM, CFU versus control; format: cell-based
Procedure: as §2

E. coli [4] = format: cell-based, Escherichia coli
Procedure: as §1

RLKWVRIWRR-NH2 [RiLK1, RLKWVRIWRR]
Random (Bestsel) ([1]; 4° C., t = 24 hours): 47.5% | Random (DichroWeb CONTIN-LL) ([1]; 4° C., t = 24 hours): 38% | α-helix (Bestsel) ([1]; 4° C., t = 24 hours): 6.5% | α-helix (DichroWeb CONTIN-LL) ([1]; 4° C., t = 24 hours): 25% | β-sheet (Bestsel) ([1]; 4° C., t = 24 hours): 46% | β-sheet (DichroWeb CONTIN-LL) ([1]; 4° C., t = 24 hours): 37% | Random (Bestsel) ([1]; 25° C., t = 24 hours): 43.6% | Random (DichroWeb CONTIN-LL) ([1]; 25° C., t = 24 hours): 37% | α-helix (Bestsel) ([1]; 25° C., t = 24 hours): 6.8% | α-helix (DichroWeb CONTIN-LL) ([1]; 25° C., t = 24 hours): 24% | β-sheet (Bestsel) ([1]; 25° C., t = 24 hours): 49.7% | β-sheet (DichroWeb CONTIN-LL) ([1]; 25° C., t = 24 hours): 39% | Random (Bestsel) ([1]; t = 0): 44.9% | Random (DichroWeb CONTIN-LL) ([1]; t = 0): 36% | α-helix (Bestsel) ([1]; t = 0): 17.9% | α-helix (DichroWeb CONTIN-LL) ([1]; t = 0): 21% | β-sheet (Bestsel) ([1]; t = 0): 37.1% | β-sheet (DichroWeb CONTIN-LL) ([1]; t = 0): 43% | Drop Log CFU/ml [2]: 5 Log CFU/ml | post-treatment decrease in the fungal load [2]: 5 Log | bactericidal concentration lower compared to IDR-1018-K6 (L. monocytogenes (LM2); L. monocytogenes): 4 fold | MBC (L. monocytogenes (LM2); L. monocytogenes (LM2)): 2 µM | bactericidal activity (E. coli [3]): 100% | bactericidal activity (Listeria): 99.5% | bactericidal activity (Salmonella): 100% | bactericidal activity (Staphylococcus): 96.9%^ | MBC (E. coli [4]): 2 µM
